Measured values from the C3SDB collision cross section collection.

details: [M+H]+; instrument: TW; Major Mix IMS/Tof Calibration Kit (Waters)

Point of comparison: O=C(O)COCCN1CCN(C(c2ccccc2)c2ccc(Cl)cc2)CC1 (stereo not given) [Cetirizine], “collision cross section (N2)” value 200.8 Å². Against it:
- O=C1Nc2ccc(Br)cc2C(c2ccccn2)=NC1O (stereo not given) [3-Hydroxybromazepam] — lower, 161 Å²
- COc1ccc2cccc(CCNC(C)=O)c2c1 [Agomelatine] — lower, 156.3 Å²
- CC(CN(C)C)CN1c2ccccc2Sc2ccccc21 (stereo not given) [Alimemazine] — lower, 166.8 Å²
- CN(C)CCc1c[nH]c2ccc(CS(=O)(=O)N3CCCC3)cc12 [Almotriptan] — lower, 175.8 Å²
- CCCCc1oc2ccccc2c1C(=O)c1cc(I)c(OCCNCC)c(I)c1 [Amiodarone-M N-Desethyl] — higher, 219.8 Å²
- CCCC1C(=O)N2C(N(C)C)=Nc3ccc(C)cc3N2C1=O (stereo not given) [Apazone] — lower, 169.5 Å²
- CN1C[C@@H]2c3ccccc3Oc3ccc(Cl)cc3[C@H]2C1 [Asenapine] — lower, 167.6 Å²
- CNCC[C@@H](Oc1ccccc1C)c1ccccc1 [Atomoxetine] — lower, 164.2 Å²
- CC(C)c1c(C(=O)Nc2ccccc2)c(-c2ccccc2)c(-c2ccc(F)cc2)n1CC[C@@H](O)C[C@@H](O)CC(=O)O [Atorvastatin] — higher, 233 Å²
- CN(C)C(=O)Oc1cc(OC(=O)N(C)C)cc(C(O)CNC(C)(C)C)c1 (stereo not given) [Bambuterol] — lower, 189.7 Å²
- OC(CCN1CCCCC1)(c1ccccc1)C1C[C@H]2C=C[C@@H]1C2 (stereo not given in full) [Biperiden] — lower, 177.7 Å²
- O=C1CN=C(c2ccccn2)c2cc(Br)ccc2N1 [Bromazepam] — lower, 159.8 Å²
- C[C@@H](N)Cc1c2ccoc2c(Br)c2ccoc12 [Bromodragonfly] — lower, 158.1 Å²
- CO[C@]12CC[C@@]3(C[C@@H]1[C@](C)(O)C(C)(C)C)[C@H]1Cc4ccc(O)c5c4[C@@]3(CCN1CC1CC1)[C@H]2O5 [Buprenorphine] — higher, 209.7 Å²
- COc1cc(CNC(=O)CCCC/C=C/C(C)C)ccc1O [Capsaicin] — lower, 183 Å²
- CN(C)CCCN1c2ccccc2Sc2ccc(Cl)cc21 [Chlorpromazine] — lower, 170.6 Å²
- O=C1CC(=O)N(c2ccccc2)c2cc(Cl)ccc2N1 [Clobazam-M nor] — lower, 161.7 Å²
- CN1C(=O)CC(=O)N(c2ccccc2)c2cc(Cl)ccc21 [Clobazam] — lower, 165.7 Å²
- CN(C)CCCN1c2ccccc2CCc2ccc(Cl)cc21 [Clomipramine] — lower, 174.3 Å²
- Nc1ccc2c(c1)C(c1ccccc1Cl)=NCC(=O)N2 [Clonazepam-M 7-amino] — lower, 162.5 Å²
- COC(=O)[C@H]1[C@@H](OC(=O)c2ccccc2)C[C@@H]2CC[C@H]1N2C [Cocaine] — lower, 169.8 Å²
- COc1ccc2c3c1O[C@H]1[C@@H](O)C=C[C@H]4[C@@H](C2)N(C)CC[C@@]341 [Codeine] — lower, 168.2 Å²
- CN1C(=O)CC[C@H]1c1cccnc1 [Cotinine] — lower, 140.7 Å²
- O=C1C[N+]([O-])=C(c2ccccc2)c2cc(Cl)ccc2N1 [Demoxepam] — lower, 161.7 Å²
- c1ccc(C(c2ccccc2)C2CCCCN2)cc1 (stereo not given) [Desoxypipradrol] — lower, 164.1 Å²
- O=C1CN=C(c2ccccc2)c2cc(Cl)ccc2N1 [Diazepam-M N-desmethyl] — lower, 160.1 Å²
- CN1C(=O)CN=C(c2ccccc2)c2cc(Cl)ccc21 [Diazepam] — lower, 164.2 Å²
- CCCCOc1cc(C(=O)NCCN(CC)CC)c2ccccc2n1 [Dibucaine] — lower, 196.2 Å²
- CNCC[C@H](Oc1cccc2ccccc12)c1cccs1 [Duloxetine] — lower, 171 Å²
- C/C=C1\N(C)C(C)CC1(c1ccccc1)c1ccccc1 (stereo not given) [EDDP] — lower, 166.2 Å²
- CCOC(=O)[C@H](CCc1ccccc1)N[C@@H](C)C(=O)N1CCC[C@H]1C(=O)O [Enalapril] — lower, 187.2 Å²
- CCOC(=O)C(c1ccccc1)C1CCCCN1 (stereo not given) [Ethylphenidate] — lower, 159.5 Å²
- CC(C)(C(=O)O)c1ccc(C(O)CCCN2CCC(C(O)(c3ccccc3)c3ccccc3)CC2)cc1 (stereo not given) [Fexofenadine] — higher, 226.9 Å²
- CNC(C)C(=O)c1ccc(F)cc1 (stereo not given) [Flephedrone] — lower, 139.8 Å²
- COc1ccc2c3c1O[C@H]1C[C@@H](O)C=C[C@@]31CCN(C)C2 [Galantamine] — lower, 166.9 Å²
- CCC1=C(C)CN(C(=O)NCCc2ccc(S(=O)(=O)NC(=O)NC3CCC(C)CC3)cc2)C1=O (stereo not given) [Glimepiride] — higher, 216.6 Å²
- Cc1cnc(C(=O)NCCc2ccc(S(=O)(=O)NC(=O)NC3CCCCC3)cc2)cn1 [Glipizide] — lower, 198.9 Å²
- O=C(CCCN1CCC(O)(c2ccc(Cl)cc2)CC1)c1ccc(F)cc1 [Haloperidol] — lower, 193.7 Å²
- COc1ccc2c3c1O[C@H]1C(=O)CC[C@H]4[C@@H](C2)N(C)CC[C@]314 [Hydrocodone] — lower, 167.4 Å²
- OCCOCCN1CCN(C(c2ccccc2)c2ccc(Cl)cc2)CC1 (stereo not given) [Hydroxyzine] — lower, 197.4 Å²
- Cc1ccc(NC(=O)c2ccc(CN3CCN(C)CC3)cc2)cc1Nc1nccc(-c2cccnc2)n1 [Imatinib] — higher, 214.6 Å²
- CC1Cc2ccccc2N1NC(=O)c1ccc(Cl)c(S(N)(=O)=O)c1 (stereo not given) [Indapamide] — lower, 185.6 Å²
- COc1ccc2c(c1)c(CC(=O)O)c(C)n2C(=O)c1ccc(Cl)cc1 [Indomethacin] — lower, 179.5 Å²
- CCCCC1=NC2(CCCC2)C(=O)N1Cc1ccc(-c2ccccc2-c2nn[nH]n2)cc1 [Irbesartan] — the same, 200.8 Å²
- NC1(c2ccccc2Cl)CCCCC1=O (stereo not given) [Ketamine-M nor] — lower, 147.1 Å²
- CNC1(c2ccccc2Cl)CCCCC1=O (stereo not given) [Ketamine] — lower, 149.2 Å²
- COc1ccc2c(c1)N(C[C@H](C)CN(C)C)c1ccccc1S2 [Levomepromazine] — lower, 176.8 Å²
- CNC(=O)C(CCN1CCC(O)(c2ccc(Cl)cc2)CC1)(c1ccccc1)c1ccccc1 [Loperamide-M Desmethyl] — higher, 218.7 Å²
- CCOC(=O)N1CCC(=C2c3ccc(Cl)cc3CCc3cccnc32)CC1 [Loratadine] — lower, 187.4 Å²
- O=C1Nc2ccc(Cl)cc2C(c2ccccc2Cl)=NC1O (stereo not given) [Lorazepam] — lower, 165.8 Å²
- CNC(C)Cc1ccc2c(c1)OCO2 (stereo not given) [MDMA] — lower, 144.9 Å²
- CCCC(C(=O)c1ccc2c(c1)OCO2)N1CCCC1 (stereo not given) [MDPV] — lower, 166.7 Å²
- CCOC(=O)CC(SP(=S)(OC)OC)C(=O)OCC (stereo not given) [Malathion] — lower, 165.9 Å²
- NCCCC12CCC(c3ccccc31)c1ccccc12 [Maprotiline-M N-desmethyl] — lower, 163.1 Å²
